The results in this text go back to US20240148747A1, “SMALL MOLECULE ACTIVATORS OF YAP TRANSCRIPTIONAL ACTIVITY FOR REGENERATIVE ORGAN REPAIR” (THE SCRIPPS RESEARCH INSTITUTE, priority 2021, published 2024).

The test system of data set [1] is YAP. Put plainly: TEAD-LUC activation assay (293A-TEAD-LUC reporter). Conditions: Homo sapiens, read-out: TEAD-LUC activation assay EC50. It counts as cell-based.
Source text: More specifically, we used a 293A cell line harboring a stably integrated cassette containing 8 copies of the TEAD binding element upstream of luciferase (8xGTII-LUC). These cells retain responsiveness to contact inhibition-induced decreases in YAP transcriptional output.^6 The TEAD-responsive reporter assay (called 293A-TEAD-LUC throughout) was adapted to 1536-well format and then used to screen a library of ˜738k compounds for YAP-inducing activity.
Additional compounds of the present disclosure were subjected to the assay described above.
A short description of data set [2]: Cytotoxicity in the TEAD-LUC activation assay. Conditions: human.

The structures appear in SMILES notation. Read-outs that look alike come from different tables or passages of the source.

Regarding `O=C(c1cc(-c2ccccc2)on1)N1CCC(Nc2ncccn2)CC1` [Compound 137], the half-maximal effective concentration (EC50) in data set [1] (Table 4) is greater than 20 µM. In addition, in data set [2], the IC50 was greater than 20 µM.

Consider `O=C(NCCCc1nccs1)c1nc2ccccc2o1` [Compound 88], for which, in data set [1] (Table 3), the EC50 is greater than 20 µM. The IC50 in data set [2] is greater than 20 µM.

Take `O=C(NCCc1ccc(Cl)c(Cl)c1)c1cc(-c2ccccc2)on1` [Compound 65]: in data set [1] (Table 3), the EC50 was greater than 20 µM. The concentration for half-maximal inhibition (IC50) in data set [2] was greater than 20 µM.

Consider `O=C(NCCCc1ncco1)c1cc(-c2ccccc2)on1` [Compound 27], for which the EC50 in data set [1] (Table 3) came to 3.8 µM. In data set [2], the half-inhibitory concentration (IC50) is greater than 20 µM.

Take `O=C(NCCCn1ccc2ccccc21)c1cc(-c2ccccc2)on1` [Compound 4]: the EC50 in data set [1] (Table 3) came out at 1.41 µM. The same compound displayed a 50% inhibitory concentration (IC50) in data set [2] greater than 20 µM.

With `O=C(NCCCc1nccs1)c1cc(-c2ccc(-c3ccccc3)cc2)on1` [Compound 40], in data set [1] (Table 3), the concentration giving a half-maximal response (EC50) is greater than 20 µM. For the same compound, the IC50 in data set [2] was greater than 20 µM.

As to `O=C(NCCc1cccc(F)c1)c1cc(-c2ccccc2)on1` [Compound 55], in data set [1] (Table 3), the EC50 was greater than 20 µM. In data set [2], the IC50 was greater than 20 µM.

For `NC(=O)CCN(Cc1ccccc1)C(=O)c1cc(-c2ccccc2)on1` [Compound 133], the EC50 in data set [1] (Table 4) was greater than 20 µM. Also, the half-inhibitory concentration (IC50) in data set [2] was greater than 20 µM.

Consider `O=C(NCCCc1nccs1)c1ncc(-c2ccccc2)o1` [Compound 102], for which the EC50 in data set [1] (Table 3) was greater than 20 µM. For the same compound, in data set [2], the IC50 was greater than 20 µM.

Take `O=C(NCCCn1cccc1)c1cc(-c2cccc(Cl)c2)on1` [Compound 1]: the concentration giving a half-maximal response (EC50) in data set [1] (Table 3) is greater than 20 µM. Besides, the IC50 in data set [2] is greater than 20 µM.

Take `CCN1C(=O)CCc2cc(NC(=O)c3cccc(Br)c3)ccc21` [Compound 152]: the concentration for a half-maximal effect (EC50) in data set [1] (Table 4) is 10 µM. Moreover, the IC50 in data set [2] is greater than 20 µM.

For `CC(F)(F)C(C)(C)NC(=O)c1cc(-c2ccccc2)on1` [Compound 46], the concentration giving a half-maximal response (EC50) in data set [1] (Table 3) is greater than 20 µM. For the same compound, in data set [2], the 50% inhibitory concentration (IC50) is greater than 20 µM.

Regarding `O=C(NCCCc1nccs1)c1cc(-c2c(F)cc(F)cc2F)on1` [Compound 86], the 50% effective concentration (EC50) in data set [1] (Table 3) was greater than 20 µM. Further, the IC50 in data set [2] is greater than 20 µM.

As for `N#Cc1ccc(-c2cc(C(=O)NCCCn3cccc3)no2)cc1` [Compound 20], the EC50 in data set [1] (Table 3) is greater than 20 µM. Besides, the IC50 in data set [2] was greater than 20 µM.

As to `O=C(NCCc1c[nH]c2ccccc12)c1cc(-c2ccccc2)on1` [Compound 49], in data set [1] (Table 3), the EC50 is greater than 20 µM. Also, in data set [2], the concentration for half-maximal inhibition (IC50) is greater than 20 µM.

`CN(C)CCN(C(=O)c1cc(-c2ccccc2)on1)c1ccccc1` [Compound 126]: the concentration for a half-maximal effect (EC50) in data set [1] (Table 4) is greater than 20 µM. The compound also displayed an IC50 in data set [2] greater than 20 µM.

For the compound `COc1ccc2cc(NC(=O)c3n[nH]c4c3CCCCC4)cnc2c1` [Compound 157], the EC50 in data set [1] (Table 4) was 10 µM. Further, the half-maximal inhibitory concentration (IC50) in data set [2] was greater than 20 µM.

Consider `Cc1ccc(N2CC(C(=O)NCc3n[nH]c4ccccc34)CC2=O)cc1` (stereo not shown) [Compound 156], for which the EC50 in data set [1] (Table 4) amounted to 5 µM. This compound gave an IC50 in data set [2] greater than 20 µM.

Consider `C[C@H](NC(=O)c1cc(-c2ccccc2)on1)c1ccccc1` [Compound 50], for which the EC50 in data set [1] (Table 3) is greater than 20 µM. Moreover, the IC50 in data set [2] was greater than 20 µM.

As to `O=C(NCCCn1cccc1)c1cc(-c2ccccc2)[nH]n1` [Compound 10], the EC50 in data set [1] (Table 3) was greater than 20 µM. Further, in data set [2], the IC50 was greater than 20 µM.

On to `O=C(NCCCn1cccc1)c1cc(-c2cccnc2)on1` [Compound 21], for which the EC50 in data set [1] (Table 3) was greater than 20 µM. The compound also showed a half-maximal inhibitory concentration (IC50) in data set [2] greater than 20 µM.

For `CC(C)(NC(=O)c1cc(-c2ccccc2)on1)C(F)(F)F` [Compound 44], in data set [1] (Table 3), the EC50 is greater than 20 µM. Moreover, the half-maximal inhibitory concentration (IC50) in data set [2] is greater than 20 µM.

Turning to `CN(CCO)C(=O)c1cc(-c2ccccc2)on1` [Compound 66], in data set [1] (Table 3), the EC50 is greater than 20 µM. In data set [2], this compound yielded an IC50 greater than 20 µM.

As to `Cn1nc(C(=O)NCCCn2cccc2)cc1-c1ccccc1` [Compound 11], the 50% effective concentration (EC50) in data set [1] (Table 3) is greater than 20 µM. The IC50 in data set [2] was greater than 20 µM.

With `O=C(NCCCn1cccc1)c1cc(-c2ccccc2F)on1` [Compound 16], the EC50 in data set [1] (Table 3) was determined as 1.27 µM. In data set [2], the IC50 was greater than 20 µM.

`CN(CCC#N)C(=O)c1cc(-c2ccccc2)on1` [Compound 52]: the EC50 in data set [1] (Table 3) was greater than 20 µM. The same compound displayed a half-maximal inhibitory concentration (IC50) in data set [2] greater than 20 µM.
